Active and inactive are the calls of the source.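 Rule for the calls: active = STAT3 reporter signal fold change below 0.5 at 10 µM; inactive = the rest.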
tested on: U3A cells, IL-6 STAT3 luciferase reporter, luminescence; assay: IL-6-induced STAT3 luciferase reduction – U3A cells, luminescence, assay provider run, counter-screen for STAT5 inhibitor project, late-stage follow-up (AID 652027); conditions: at 10 µM; active compounds read low

Question: Which fold change does the source give for COC(=O)C1CCCCN1CC(=O)/C=C1/N(C)c2ccccc2C1(C)C (stereo not given) here?
Answer: 1.04 (inactive)

Question: With CN1/C(=C\C(=O)CN2C(=O)c3ccc([N+](=O)[O-])cc3C2=O)C(C)(C)c2ccccc21 as the compound, how does the fold change read?
Answer: 0.77 (inactive)

Question: For CC(C)(C)C(=O)C[n+]1ccc2ccccc2c1, which fold change is on record?
Answer: 0.93 (inactive)

Question: For CN1/C(=C\C(=O)CN2C(=O)NC(C)(c3ccc(Cl)cc3)C2=O)C(C)(C)c2ccccc21 (stereo not given), which fold change is on record?
Answer: 0.75 (inactive)

Question: With Cc1cc[n+](CC(=O)/C=C2\N(C)c3ccccc3C2(C)C)cc1 as the compound, how does the fold change read?
Answer: 0.68 (inactive)

Question: For O=C(C[n+]1ccc2ccccc2c1)c1cc2ccccc2oc1=O, which fold change is on record?
Answer: 0.84 (inactive)

Question: How did the fold change turn out when COc1cccc2cc(C(=O)C[n+]3ccc4ccccc4c3)c(=O)oc12 was run?
Answer: 1.17 (inactive)

Question: How did the fold change turn out when CN1/C(=C\C(=O)CN2C(=O)C3CC=CCC3C2=O)C(C)(C)c2ccccc21 (stereo not given) was run?
Answer: 0.7 (inactive)

Question: With CN1/C(=C\C(=O)CN2CCc3ccccc3C2)C(C)(C)c2ccccc21 as the compound, how does the fold change read?
Answer: 1.28 (inactive)

Question: Which fold change does the source give for CN1/C(=C\C(=O)CN2CCCC2)C(C)(C)c2ccccc21 here?
Answer: 0.72 (inactive)

Question: With CN1/C(=C\C(=O)C[n+]2cccc(-c3ccccc3)c2)C(C)(C)c2ccccc21 as the compound, how does the fold change read?
Answer: 0.55 (inactive)

Question: With Cc1cc[n+](CC(=O)/C=C2\N(C)c3ccccc3C2(C)C)c(C)c1 as the compound, how does the fold change read?
Answer: 0.61 (inactive)

Question: CN1/C(=C\C(=O)CN2C(=O)c3ccccc3C2=O)C(C)(C)c2ccccc21 was tested. Which fold change did it give?
Answer: 0.87 (inactive)

Question: For CN1/C(=C\C(=O)Cn2cnc3ccc(Cl)cc3c2=O)C(C)(C)c2ccccc21, which fold change is on record?
Answer: 0.92 (inactive)

Question: How did the fold change turn out when CN1/C(=C\C(=O)CN2C(=O)c3ccccc3CS2(=O)=O)C(C)(C)c2ccccc21 was run?
Answer: 0.65 (inactive)

Question: For O=C(C[n+]1ccc2ccccc2c1)Nc1ccccc1, which fold change is on record?
Answer: 1.74 (inactive)

Question: CCOC(=O)C1CCCN(CC(=O)/C=C2/N(C)c3ccccc3C2(C)C)C1 (stereo not given) was tested. Which fold change did it give?
Answer: 1.16 (inactive)

Question: Which fold change does the source give for O=C(C[n+]1ccc2ccccc2c1)c1ccc2ccccc2c1 here?
Answer: 1.34 (inactive)

Question: Which fold change does the source give for O=C(C[n+]1ccc2ccccc2c1)c1ccccc1 here?
Answer: 1.04 (inactive)

Question: With CN1/C(=C\C(=O)CN2C(=O)c3ccccc3S2(=O)=O)C(C)(C)c2ccccc21 as the compound, how does the fold change read?
Answer: 0.82 (inactive)

Question: With CN1/C(=C\C(=O)Cn2nnc(-c3ccccc3)n2)C(C)(C)c2ccccc21 as the compound, how does the fold change read?
Answer: 0.62 (inactive)

Question: How did the fold change turn out when CN1/C(=C\C(=O)Cn2c(=O)c(C#N)cn(C)c2=O)C(C)(C)c2ccccc21 was run?
Answer: 1.03 (inactive)

Question: With CN1/C(=C\C(=O)C[n+]2ccccc2)C(C)(C)c2ccccc21 as the compound, how does the fold change read?
Answer: 0.77 (inactive)

Question: How did the fold change turn out when COc1ccc2oc(=O)c(C(=O)C[n+]3ccc4ccccc4c3)cc2c1 was run?
Answer: 1.15 (inactive)

Question: For CN1/C(=C\C(=O)Cn2cc(C(F)(F)F)ccc2=O)C(C)(C)c2ccccc21, which fold change is on record?
Answer: 1.09 (inactive)

From PubChem BioAssay AID652027 (The Scripps Research Institute Molecular Screening Center, 2013)
